# Results as given in patent US6913892B1, “Method of obtaining compositions comprising Y4 specific compounds” (H. Lundbeck A/S, priority 1993, dated 2005).
# Assays:
# Y1 receptor [1] = biological target: T1, Y1 receptor (Homo sapiens, UniProt P25929); details: Table 1, rank orders from published reports; cited from earlier work
# T1 sequence (P25929 1-384): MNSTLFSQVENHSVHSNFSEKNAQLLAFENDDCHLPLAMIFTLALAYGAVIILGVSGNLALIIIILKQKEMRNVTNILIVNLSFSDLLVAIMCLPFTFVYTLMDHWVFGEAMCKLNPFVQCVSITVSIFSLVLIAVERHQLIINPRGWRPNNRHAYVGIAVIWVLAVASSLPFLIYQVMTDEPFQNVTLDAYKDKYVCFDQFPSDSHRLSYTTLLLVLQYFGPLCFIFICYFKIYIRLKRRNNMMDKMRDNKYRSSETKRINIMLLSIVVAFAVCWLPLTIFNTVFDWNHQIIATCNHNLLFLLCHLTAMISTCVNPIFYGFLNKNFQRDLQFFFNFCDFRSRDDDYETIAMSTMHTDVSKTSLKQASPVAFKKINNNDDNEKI
# Y1 receptor [2] = biological target: T1, Y1 receptor; assay: Competitive displacement / binding of 125I-PYY, membranes of COS-7 cells transiently expressing human Y1 receptors; design: expressed in transfected cells; host or cells: COS-7
# Description: (§1) Cell culture: COS-7 cells were grown on 150 mm plates (Corning) in D-MEM with supplements (Dulbecco's Modified Eagle Medium with 10% bovine calf serum, 2 mM glutamine, 100 units/ml penicillin/80 units/ml streptomycin) at 37° C., 5% CO2.
# Membrane Harvest: Membranes were harvested from COS-7 cells 48 hours after transfection and from SK-N-Be(2) seven days after splitting.
# (§2) Radioligand Binding to Membrane Suspensions: Membrane suspensions were diluted in binding buffer supplemented with 0.1% bovine serum albumin and 0.1% bacitracin to yield an optimal membrane protein concentration: ˜0.02 mg/ml for human Y1 receptors, ˜0.015 mg/ml for hp25a receptors, and ˜0.25 mg/ml for SK-N-Be(2). […] Incubations were terminated by filtration over Whatman GF/C filters (pre-coated with 0.5% polyethyleneimine and air-dried before use). […] Specific binding in time course and competition studies was typically 80%; most non-specific binding was associated with the filter.
# [3] = biological target: T2, human hp25a (Y4) receptor (Homo sapiens, UniProt P50391); assay: Competitive displacement / binding of 125I-PYY, membranes of COS-7 cells transiently expressing hp25a (human Y4) receptors
# T2 construct: The entire coding region of hp25a (1127 bp); expressed in transfected cells; host or cells: COS-7
# T2 sequence (P50391 whole entry): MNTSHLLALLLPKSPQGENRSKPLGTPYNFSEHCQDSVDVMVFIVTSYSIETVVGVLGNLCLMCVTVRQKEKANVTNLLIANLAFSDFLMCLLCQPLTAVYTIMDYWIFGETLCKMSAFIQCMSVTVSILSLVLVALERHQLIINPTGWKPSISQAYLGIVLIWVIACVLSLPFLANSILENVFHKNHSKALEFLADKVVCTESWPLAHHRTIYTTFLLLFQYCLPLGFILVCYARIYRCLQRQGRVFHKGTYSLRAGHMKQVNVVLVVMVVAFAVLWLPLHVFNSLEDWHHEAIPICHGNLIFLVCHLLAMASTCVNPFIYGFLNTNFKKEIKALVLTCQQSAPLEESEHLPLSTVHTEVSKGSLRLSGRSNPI
# Description: as §1
# Membrane Harvest: Membranes were harvested from COS-7 cells 48 hours after transfection and from SK-N-Be(2) seven days after splitting. […] Large particles and debris were cleared by low speed centrifugation (200×g, 10 min, 4° C.).
# as §2
# Y3 receptor = details: Table 1, rank orders from published reports; cited from earlier work
# PP receptor = details: Table 1, rank orders from published reports; cited from earlier work
# PYY-preferring receptor = details: Laburthe et al., 1986, 1990; cited from earlier work
# [4] = N-terminal deletion of porcine NPY
substance,measurement,setting,value
"NPY2-36: NPY fragment 2-36, species not stated (Table 1)","Affinity (−pKi or −pEC50), Y1",Y1 receptor [1],9 to 8
"NPY13-36: NPY carboxyl-terminal fragment 13-36, species not stated; b153 folds follow porcine data","decrease in affinity compared with full length parent peptide, human Y1 receptors",Y1 receptor [2]; [4],1000 fold
same,"decrease in affinity compared with full length parent peptide, hp25a",[3]; [4],33 fold
Neuropeptide Y [NPY],"Affinity (−pKi or −pEC50), Y3",Y3 receptor,10 to 9
same,"Affinity (−pKi or −pEC50), PP",PP receptor,<6
"PYY: peptide YY, species not stated at the place","Affinity (−pKi or −pEC50), Y3",Y3 receptor,<6
same,higher affinity for PYY than for NPY,PYY-preferring receptor,5-10 fold
"[LEU^31, Pro^34]NPY: analog of NPY modified at residues 31 and 34, species not stated (Table 1)","Affinity (−pKi or −pEC50), PP",PP receptor,9 to 8
[Pro^34]NPY: NPY analog with Pro34 (Table 1),"Affinity (−pKi or −pEC50), Y3",Y3 receptor,9 to 8
^125I-PYY,observed association rate (Kobs),Y1 receptor [2]; human Y1 in COS-7,0.06 ± 0.02 min⁻¹
same,observed association rate (Kobs),"[3]; hp25a, 0.06 nM 125I-PYY",0.12 ± 0.02 min⁻¹
